The values below come from patent US20260209152A1, “Substituted Hydroxystilbene Compounds and Derivatives, Synthesis and Uses Thereof” (Kynan Duke IP, LLC, priority 2019, published 2026).

The test deals with IL-2 secretion from human CD4-positive T-cells stimulated with antiCD2/antiCD3/antiCD28-coated beads. The test is described as follows: T-cell IL-2 assay (assay number 1297, 1298). Format: cell-based. The settings on record: for Max Eff.: IL-2 (1297): highest effect as percentage of control maximum effect; for EC50: inhibition of IL-2 secretion, human CD4-positive T-cells, read-out: Abs EC50: IL-2 (1297). On the procedure:
Inhibition of IL-4 and IL-2 secretion from human CD4-positive T-cells stimulated with antiCD2/antiCD3/antiCD28-coated beads. LEO Pharma Open Innovation assay number 1297, 1298, 1299.
Then the level of secreted of IL-4 is measured in the culture supernatant using electrochemiluminescence (MSD kits, Meso Scale Discovery), IL-2 is measured by proximity homogenous time-resolved fluorescence (HTRF) and the amount of living cells is measured by addition of resazurin (PrestoBlue®) to allow identifying compounds that inhibit T-cell proliferation or viability.
• Peripheral blood mononuclear cells (PBMC) are isolated from fresh human buffy coats by centrifugation on Lymphoprep® following instructions from Sebmate™ (Stemcell). • The cells are resuspended in 30 ml of PBS+2% Serum and counted. • CD4 positive T-cells are isolated from freshly isolated PBMC using EasySep™ humane CD4+ T-cell Isolation Kit (Catalog #17952) and following the manufacturer's protocol. • Cells are spun down and resuspended in freezing medium (X-vivo 15+10% FBS+5% DMSO) • Cells are frozen in aliquots of 3×10^7 cells/vial matching one 384 plate. Cells are place in Coolcell box and place in −80° C. freezer for one day then transferred to the −150° C. freezer in a prechilled box.
• Prepare assay medium: 500 ml X-Vivo 15+5 ml Glutamax (2 mM final)+5 ml pen/strep (100 U/ml final). • Add 5 μL medium to the wells of a 384 well plate (Greiner cat. No 788986). • CD4+ Cells: Thaw frozen cells from −150° C. freezer in 37° C. bath, and pipette the cells into 10 ml medium. Spin 10 min @170 g. • Resuspend pellet in 3.5 ml per 2.5×10^7 cells and add 10 μL per well to the plate (40000 cells/well) • Test compounds: Prepare compound-containing source plate, i.e. titrations in DMSO to be transferred to the assay plate. • Add 25 nL compounds and controls from the source plate to the assay plate (with cells). • Beads (T Cell Activation/Expansion Kit-human, Miltenyi Biotech, cat. no. 130-091-441): Coat beads with antibodies according to the kit procedure. • Add 10 μL beads to each well except for the negative controls. One bead per cell. Add 10 μL medium to the negative controls. • Incubate plates at 37° C., 5% CO2/95% air for 2 days.
• Remove plates from incubation and equilibrate to room temperature for 30 minutes. • IL-4 concentration in 10 μL supernatant is measured using an MSD IL-4 384-plate kit (Custom made) according to manufacturer protocol. • IL-2 concentrations in the supernatant is measured by an IL-2 HTRF kit, CisBio, cat. No 62HIL02PEH. • Add 4 μL medium to white proxi 384-well plates • Add 1 μL supernatant. • Add 4 μL mHTRF mix (each diluted 1:300 in ⅔ reconstitution buffer and ⅓ assay medium). • Spin the plates for 1 minute at 170 g • Seal and incubate overnight and read fluorescence in a plate reader • The amount of viable cells is measured by PrestoBlue® reagent • Add 15 μL diluted PrestoBlue® reagent (resazurin) corresponding to 2.5 μL Prestoblue/well to the assay plate. • Incubate overnight at 37° C./5% CO2. The fluorescence in the wells is measured (Ex615/Em 535).
IL-4 concentration in the supernatants is measured using electrochemiluminescence (MSD kits, Meso Scale Discovery). IL-2 concentration in the supernatants is measured using homogeneous time-resolved fluorescence resonance (TR-FRET). The assay is quantified by measuring fluorescence at 665 nm (proportional to IL-2 concentration) and 620 nm (control). A ratio 665/620*1000 is calculated.
The capacity of the test compound to inhibit IL-4 and IL-2 release is normalized to the signal in the negative control wells with un-stimulated T-cells.

For orientation: EC50 means the concentration at which the effect is half-maximal. With `COc1cc(/C=C/c2cc(O)cc(OC)c2CC=C(C)C)ccc1O` [Compound 1, (E)-3-(4-hydroxy-3-methoxystyryl)-5-methoxy-4-(3-methylbut-2-en-1-yl)phenol], the “Max Eff.: IL-2 (1297)” value amounted to 42% and the EC50 turned out to be 5 µM.

Take `CCOc1cc(O)cc(/C=C/c2ccc(O)c(OC)c2)c1CC=C(C)C` [Compound 8, (E)-3-Ethoxy-5-(4-hydroxy-3-methoxystyryl)-4-(3-methylbut-2-en-1-yl)phenol]: the “Max Eff.: IL-2 (1297)” value turned out to be 51% and the EC50 is 5 µM.

For `CCOc1cc(O)cc(/C=C/c2ccc(O)c(O)c2)c1CC=C(C)C` [Compound 20, (E)-4-(3-Ethoxy-5-hydroxy-2-(3-methylbut-2-en-1-yl)styryl)benzene-1,2-diol], the “Max Eff.: IL-2 (1297)” value turned out to be 34% and the EC50 stood at 5 µM.

For `COc1cc(/C=C/c2cc(O)cc(OC)c2CC=C(C)C)ccc1NC=O` [Compound 27, (E)-N-(4-(5-hydroxy-3-methoxy-2-(3-methylbut-2-en-1-yl)styryl)-2-methoxyphenyl)formamide], the “Max Eff.: IL-2 (1297)” value is 46% and the EC50 was 5 µM.

For the compound `CCOc1cc(O)cc(/C=C/c2ccc(NC=O)c(OC)c2)c1CC=C(C)C` [Compound 28, (E)-N-(4-(3-Ethoxy-5-hydroxy-2-(3-methylbut-2-en-1-yl)styryl)-2-methoxyphenyl)formamide], the “inhibition of IL-2 secretion, in words” value was “lower potency effect”; the “Max Eff.: IL-2 (1297)” value amounted to 55%; the EC50 turned out to be 4.26 µM.

As for `COc1cc(/C=C/c2cc(O)cc(OC)c2CC=C(C)C)ccc1NC(=O)CN` [Compound 31, (E)-2-amino-N-(4-(5-hydroxy-3-methoxy-2-(3-methylbut-2-en-1-yl)styryl)-2-methoxyphenyl)acetamide], the “Max Eff.: IL-2 (1297)” value turned out to be 36% and the EC50 stood at 5 µM.

In the case of `CCOc1cc(O)cc(/C=C/c2ccc(NC(=O)C(=O)O)c(OC)c2)c1CC=C(C)C` [Compound 35, (E)-2-((4-(3-Ethoxy-5-hydroxy-2-(3-methylbut-2-en-1-yl)styryl)-2-methoxyphenyl)amino)-2-oxoacetic acid], the “Max Eff.: IL-2 (1297)” value is reported as 16% and the EC50 amounted to 5 µM.
